According to publication PMC9606943, “Synthesis and Chemopreventive Potential of 5-FU/Genistein Hybrids on Colorectal Cancer Cells” (Pharmaceuticals, 2022):

Legend:
SW480 = assay: Sulforhodamine B cytotoxicity assay, SW480; format: cell-based, human; conditions: 48 h; for IC50: mean ± SE
Description: (§1) Two colon cancer cells (SW480 and SW620) and non-malignant cell lines (human keratinocytes, HaCaT; chinese hamster ovary, CHO-K1) were obtained from The European Collection of Authenticated Cell Cultures (ECACC, England). For biological evaluations, cells were cultured in Dulbecco’s Modified Eagle Medium, supplemented with 10% heat-inactivated (56 °C) horse serum, 1% penicillin/streptomycin and 1% non-essential amino acids (Gibco Invitrogen, Carlsbad, CA, USA). During the treatments, the serum was reduced to 3%, and the medium was supplemented with insulin ([…]) transferrin ([…]) and selenium (5 ng/mL) (ITS-defined medium; Gibco, Invitrogen, Carlsbad, USA). To avoid Mycoplasma spp. contamination, cell cultures were regularly tested by polymerase chain reaction.
(§2) Briefly, cells were seeded at 20,000 cells/well (for cytotoxicity assay) and 2500 cells/well (for the antiproliferative test) in 96-well tissue culture plates, incubating at 37 °C in a humidified atmosphere with 5% CO2. After the adaptation time (24 h), cells were treated with increasing concentrations of the hybrid molecules or DMSO (1%). At the end of each treatment, cells were fixed with trichloroacetic acid (50% v/v; MERCK) for one hour at 4 °C. Subsequently, cell proteins were stained with SRB (0.4% w/v; Sigma-Aldrich, United States) and washed with acetic acid (1%). After drying at room temperature, Tris-base (10 mM) was added to solubilize protein bound stain. Absorbance was read in a microplate reader (Mindray MR-96A) at 492 nm. All experiments were performed at least in duplicate.

HaCaT = assay: Sulforhodamine B cytotoxicity assay, HaCaT; format: cell-based, human; conditions: 48 h; mean ± SE; non-malignant cells
Description: as §1, §2

CHO-K1 = assay: Sulforhodamine B cytotoxicity assay, CHO-K1; format: cell-based, chinese hamster; conditions: 48 h; mean ± SE; non-malignant cells
Description: as §1, §2

SW620 [1] = assay: Sulforhodamine B cytotoxicity assay, SW620; format: cell-based, human; conditions: 48 h; for IC50: mean ± SE
Description: as §1, §2

SW620 cells [2] = assay: Cell death induction (Annexin V/FITC and PI), SW620; conditions: 48 h
Description: (§3) SW480 and SW620 cells were treated for 48 h and further collected by scraping. After centrifugation, the cell pellet was resuspended in Annexin V/FITC–PI and incubated in darkness for 20 min. Data were obtained through flow cytometry and analyzed with FlowJo 7.6.2 (Ashland, OR, USA). […] Cells with positive staining for PI were considered dead cells, late apoptotic cells, necroptotic cells or secondary necrotic cells. All assays were repeated twice [56].

SW620 [3] = assay: Antiproliferative activity (sulforhodamine B), SW620; format: cell-based, human; conditions: dose- and time-dependent, from day 2 above 12.5 µM, from day 4 at 6.25 µM
Description: as §2

SW620 cells [4] = assay: Cell cycle distribution (PI, flow cytometry), SW620; format: cell-based, human; conditions: 48 h, IC50 concentration, versus DMSO control
Description: Cell cycle analysis was evaluated by flow cytometry using propidium iodide (PI). This experiment was carried out as previously described by Nicoletti et al. (1991). Then, 48 h after treatment with the IC50 value of the hybrids 4a, 4g and DMSO (1%) as a vehicle control, cells were collected by scraping and centrifugation, resuspending the cell pellet in a versene buffer. Thereafter, cells were fixed with 1.8 mL cold ethanol (70%) at 4 °C overnight. Alcohol was removed by subsequent washing twice with versene buffer. The final pellet was resuspended in 300 µL of PBS with 0.25 mg/mL RNAse (Type I-A, Sigma-Aldrich, Germany) and 0.1 mg/mL PI and incubated for 30 min in the dark at room temperature. FACS Canto II flow cytometer (BD Biosciences, USA) was used to read the PI fluorescence of 10,000 events. The analysis of data was performed with the software FlowJo 7.6.2 (Ashland, OR, USA).

SW620 cells [5] = assay: Mitochondrial membrane potential and plasma membrane integrity (DiOC6/PI), SW620; format: cell-based, human; conditions: 48 h, IC50 concentration
Description: The fluorescent dyes DiOC6 (3,3′-dihexyloxacarbocyanine iodide, Thermo Fisher Scientific, Waltham, MA, USA) and propidium iodide (PI) were used to evaluate possible changes in mitochondrial membrane potential induced by the hybrid molecules. Then, 2.5 × 10^5 cells/well were seeded in 6-well tissue culture plates and allowed to grow for 24 h. Then, these were treated with hybrids 4a and 4g (with the IC50 value for each compound). Cells were harvested by scrapping 48 h after treatment, stained with DiOC6 and propidium iodide (PI) at room temperature for 30 min in darkness. Flow cytometric analysis of 10,000 events was carried out to quantify cells with mitochondrial depolarization, excitation at 488 nm and detection of the emission with the green (530/15 nm) and the red (610/20 nm) filters.

SW620 cells [6] = tested on: SW620 cells
Description: as §3

Substance	IC50 (SW480) [µM]	IC50 (HaCaT) [µM]	IC50 (CHO-K1) [µM]	IC50 (SW620 [1]) [µM]	Selectivity Index (SI) CHO-K1/620 (SW620 [1])	Selectivity Index (SI) HaCaT/SW620 (SW620 [1])	Plasma membrane integrity / cell death (SW620 cells [2])	Antiproliferative activity (cell viability) (SW620 [3])	Effect on cell cycle distribution (SW620 cells [4])	Change in mitochondrial membrane potential (SW620 cells [5])	Q3 (viable cells per legend) (SW620 cells [6])	Selectivity Index (SI) CHO-K1/SW480 (SW480)	Selectivity Index (SI) HaCaT/SW480 (SW480)
5-fluoro-1-((1-(3-((5-hydroxy-3-(4-hydroxyphenyl)-4-oxo-4H-chromen-7-yl)oxy)butyl)-1H-1,2,3-triazol-4-yl)methyl)pyrimidine-2,4(1H,3H)-dione [4c]	> 100	> 100	> 100	> 100	–	–	–	–	–	–	–	–	–
5-fluoro-1-((1-(3-((5-hydroxy-3-(4-hydroxyphenyl)-4-oxo-4H-chromen-7-yl)oxy)dodecyl)-1H-1,2,3-triazol-4-yl)methyl)pyrimidine-2,4(1H,3H)-dione	> 100	> 100	> 100	83.6 ± 8.05	>1.20	>1.20	–	–	–	–	–	–	–
5-fluoro-1-((1-(3-((5-hydroxy-3-(4-hydroxyphenyl)-4-oxo-4H-chromen-7-yl)oxy)hexyl)-1H-1,2,3-triazol-4-yl)methyl)pyrimidine-2,4(1H,3H)-dione [4e]	> 100	> 100	> 100	> 100	–	–	–	–	–	–	–	–	–
5-fluoro-1-((1-(3-((5-hydroxy-3-(4-hydroxyphenyl)-4-oxo-4H-chromen-7-yl)oxy)nonyl)-1H-1,2,3-triazol-4-yl)methyl)pyrimidine-2,4(1H,3H)-dione [4g]	> 100	> 100	> 100	36.8 ± 0.71	>2.71	>2.71	caused a loss in membrane integrity	significant decrease in the percentages of cell viability	important decrease in the population of cells in S-phase with a slight increase in G0/G1	do not induce significant changes in mitochondrial membrane potential	0,00%	–	–
5-fluoro-1-((1-(3-((5-hydroxy-3-(4-hydroxyphenyl)-4-oxo-4H-chromen-7-yl)oxy)octyl)-1H-1,2,3-triazol-4-yl)methyl)pyrimidine-2,4(1H,3H)-dione [4f]	97.5 ± 5.04	50 ± 7.17	> 100	47.4 ± 2.19	>2.11	1.05	–	–	–	–	–	>1.02	0.51
5-fluoro-1-((1-(3-((5-hydroxy-3-(4-hydroxyphenyl)-4-oxo-4H-chromen-7-yl)oxy)pentyl)-1H-1,2,3-triazol-4-yl)methyl)pyrimidine-2,4(1H,3H)-dione [4d]	> 100	> 100	> 100	> 100	–	–	–	–	–	–	–	–	–
